“Also recorded” adds a separate entry of the source.
Key:
[1] = tested on: patients with unresectable GIST; experiment: Phase 1 dose escalation and expansion study in advanced GIST: safety; assay type: in vivo
Method: Patients: Eligibility criteria for the phase 1 dose escalation and expansion study included provision of written informed consent, age ≥18 years, Eastern Cooperative Oncology Group performance status ≤2, and adequate end-organ function. The dose escalation part of the trial was open to patients with refractory solid tumors or unresectable GIST; however, only GIST patients were enrolled.
Part 1 followed a 3+3 dose-escalation design, starting at 30 mg and continuing until the maximum tolerated dose (MTD) or the recommended phase 2 dose (RP2D) below the MTD was determined. Intrapatient dose escalation was permitted, and additional accrual was allowed to dose levels previously determined tolerable. The part 1 MTD was used to initiate the part 2 expansion.
All patients underwent tumor imaging for response assessment via computed tomography (CT) or magnetic resonance imaging (MRI) at screening, every two cycles through and including cycle 13, then every three months until progression or discontinuation. Target and non-target lesions were identified and assessed per mRECIST 1.1 for GIST by independent, blinded, central radiographic review (BioTelemetry, Inc., Rockville, MD, USA). […]

[2] = tested on: mast cell burden (serum tryptase, bone marrow mast cells, KIT D816V allele burden); experiment: Phase 2 PIONEER trial Part 1: measures of mast cell burden; assay type: in vivo, human
Method: This is a Phase 2, randomized, double-blind, placebo-controlled study comparing the efficacy and safety of Compound (I)+best supportive care (BSC) with placebo+BSC in patients with ISM and SSM whose symptoms are not adequately controlled by BSC. The study is conducted in three parts. In Part 1, the optimal dose Compound (I) (recommended phase 2 dose (RP2D)) was identified in patients with ISM. In Part 2, patients with ISM and SSM are randomly assigned to the RP2D of Compound (I) identified in Part 1+BSC, or to matching placebo+BSC. In Part 3, patients who have completed treatment in Part 1 or Part 2 of the study participate in a long-term extension, receiving Compound (I) at the RP2D+BSC.
Once BSC was optimized (between Day −98 and Day −71) and doses were stable for ≥14 days, ISM-SAF data was collected for an additional 14 days to determine eligibility based on symptom severity i.e., to identify ISM and SSM patients having moderate-to-severe symptoms. Patients not meeting the symptom severity threshold were deemed screen failures and were not eligible for study participation. Patients having moderate-to-severe symptoms and meeting the threshold for symptom severity began other screening procedures, including the following: Bone marrow (BM) biopsy (an archival sample obtained within the preceding 24 weeks or a fresh sample) and skin biopsy of lesional and nonlesional skin (in patients with cutaneous mastocytosis (CM)) were performed for confirmation of SM diagnosis and quantification of mast cells (MCs); patients with CM (maculopapular) had skin photographs taken. […]
Compound (I) was administered orally, once a day in continuous 28-day cycles. Patients were assessed weekly for the first 4 weeks, then every 4 weeks (until the RP2D was determined) for safety, laboratory monitoring, and quality of life (QoL) assessments. […] After completion of 12 weeks of treatment, BM and skin biopsy were repeated for MC quantification and skin photographs were taken in patients with baseline CM. […]

Cn1cc(-c2cc3c(N4CCN(c5ncc([C@@](C)(N)c6ccc(F)cc6)cn5)CC4)ncnn3c2)cn1 [Compound (I), (S)-1-(4-fluorophenyl)-1-(2-(4-(6-(1-methyl-1H-pyrazol-4-yl)pyrrolo[2,1-f][1,2,4]triazin-4-yl)piperazin-1-yl)pyrimidin-5-yl)ethan-1-amine]
Decreased appetite, Grade 1/2 event ([1]; 300 mg dose): 38%
Diarrhea, Grade 1/2 event ([1]; 300 mg dose): 41%
Fatigue, Grade 1/2 event ([1]; 300 mg dose): 38%
Nausea, Grade 1/2 event ([1]; 300 mg dose): 69%
Patients with cycle 1 dose-limiting toxicities ([1]; 600 mg once daily, Part 1): Two
Patients requiring at least one dose reduction or treatment interruption ([1]; 69 patients): 84%
Discontinuation for adverse events considered related to Compound (I) ([1]; 82 patients enrolled): 12%
Reason for treatment discontinuation: adverse events ([1]; 82 patients enrolled): 34%
Reason for treatment discontinuation: disease progression ([1]; 82 patients enrolled): 59%
Treatment-related deaths ([1]; 82 patients enrolled): no treatment-related deaths
Patients who discontinued treatment ([1]; 82 patients enrolled (44 patients)): 54%
Fatigue, most common event ([1]; 400-mg dose): 47%
Nausea, most common event ([1]; 400-mg dose): 71%
Periorbital edema, most common event ([1]; 400-mg dose): 47%
Vomiting, most common event ([1]; 400-mg dose): 47%
Discontinuation for adverse events considered related to Compound (I) ([1]; PDGFRA D842V population): 14%
Reason for treatment discontinuation: adverse events ([1]; PDGFRA D842V population): 63%
Reason for treatment discontinuation: disease progression ([1]; PDGFRA D842V population): 21%
Patients who discontinued treatment ([1]; PDGFRA D842V population (19/56)): 34%
Events resulting in treatment discontinuation, patients ([1]; as printed after the 300 mg Grade 1/2 events (2 patients)): 2%
Events primarily Grade 1, patients ([1]; as printed after the 300 mg Grade 1/2 events (19 patients)): 23%
Intracranial hemorrhage ([1]; both events Grade 3, non-fatal): 2 patients
Cycle-1 dose limiting toxicity ([1]; doses of 30 to 400 mg per day, Part 1): No cycle-1 dose limiting toxicity
Maximum tolerated dose ([1]; once daily, oral): 400 mg
Recommended phase 2 dose ([1]; once daily, oral, GIST): 300 mg
Anemia, Grade 3/4 event ([1]; regardless of dose): 30%
Grade 3/4 events, patients ([1]; regardless of dose (47 patients)): 57%
Grade of most treatment-related adverse events ([1]; safety population): grade 1 or 2
Encephalopathy ([1]; safety population (2 patients)): 2%
Confusional state ([1]; safety population (7 patients)): 9%
Cognitive disorder ([1]; safety population (8 patients)): 10%
Cognitive effects, patients ([1]; safety population (33 patients)): 40%
Memory impairment ([1]; safety population (n=25)): 30%
Blood KIT D816V allele fraction ([2]; 25 mg QD, similar to 50 mg and 100 mg QD): significant reduction
Serum tryptase, mast cell burden and KIT D816V allele burden ([2]; 25 mg once daily, ISM patients, vs placebo, FIG. 13): significant reductions; also recorded: robust reductions; also recorded: robust declines
KIT D816V allele burden ([2]; all dose cohorts (25, 50, 100 mg once daily), ISM patients, FIG. 12): significant decreases
